# Experimental data as given in PubChem BioAssay (NCI).
#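 96-well plates; 48 h exposure; 5 concentrations. Endpoints by linear interpolation between flanking doses. Not reached: highest tested concentration assigned. GI50 marks 50% less growth. TGI: concentration producing complete growth inhibition.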
# Key:
# Assay in all cases: NCI-60 cell line screen, 48 h
# NCI-H460 lung = system: NCI-H460 lung
# TK-10 renal = system: TK-10 renal
# HCC-2998 colon = system: HCC-2998 colon
# UO-31 renal = system: UO-31 renal
# OVCAR-5 ovarian = system: OVCAR-5 ovarian
# OVCAR-4 ovarian = system: OVCAR-4 ovarian
# SNB-75 CNS = system: SNB-75 CNS
# K-562 leukemia = system: K-562 leukemia
# IGROV1 ovarian = system: IGROV1 ovarian
# NCI-H23 lung = system: NCI-H23 lung
# M14 melanoma = system: M14 melanoma
# KM12 colon = system: KM12 colon
# HOP-92 NSCLC = system: HOP-92 NSCLC
# CCRF-CEM leukemia = system: CCRF-CEM leukemia
# CAKI-1 renal = system: CAKI-1 renal
# SNB-19 CNS = system: SNB-19 CNS
# NCI/ADR-RES ovarian = system: NCI/ADR-RES ovarian
# SF-268 CNS = system: SF-268 CNS
# RXF 393 renal = system: RXF 393 renal
# HS 578T breast = system: HS 578T breast
# A549 NSCLC = system: A549 NSCLC
# EKVX NSCLC = system: EKVX NSCLC
# HCT-15 colon = system: HCT-15 colon
# HL-60(TB) leukemia = system: HL-60(TB) leukemia
# ACHN renal = system: ACHN renal
# SW-620 colon = system: SW-620 colon
# SF-539 CNS = system: SF-539 CNS
# SK-MEL-28 melanoma = system: SK-MEL-28 melanoma
# U251 CNS = system: U251 CNS
# HT29 colon = system: HT29 colon
# MOLT-4 leukemia = system: MOLT-4 leukemia
# SK-MEL-5 melanoma = system: SK-MEL-5 melanoma
# OVCAR-3 ovarian = system: OVCAR-3 ovarian
# RPMI-8226 leukemia = system: RPMI-8226 leukemia
# LOX IMVI melanoma = system: LOX IMVI melanoma
# MCF7 breast = system: MCF7 breast
# SN12C renal = system: SN12C renal
# SR leukemia = system: SR leukemia
# SK-OV-3 ovarian = system: SK-OV-3 ovarian
# 786-0 renal = system: 786-0 renal
# BT-549 breast = system: BT-549 breast
# OVCAR-8 ovarian = system: OVCAR-8 ovarian
# SF-295 CNS = system: SF-295 CNS
# UACC-62 melanoma = system: UACC-62 melanoma
# SK-MEL-2 melanoma = system: SK-MEL-2 melanoma
# NCI-H226 lung = system: NCI-H226 lung
# HOP-62 NSCLC = system: HOP-62 NSCLC
# UACC-257 melanoma = system: UACC-257 melanoma
# NCI-H522 lung = system: NCI-H522 lung
# MDA-MB-435 = system: MDA-MB-435
# PC-3 prostate = system: PC-3 prostate
# DU-145 prostate = system: DU-145 prostate
# A498 renal = system: A498 renal
# HCT-116 colon = system: HCT-116 colon
# COLO 205 colon = system: COLO 205 colon
# MALME-3M melanoma = system: MALME-3M melanoma
# MDA-MB-231 breast = system: MDA-MB-231 breast
smiles,measurement,setting,value
COc1cc(/C=C2\CCc3ccccc3C2=O)ccc1O,TGI,NCI-H460 lung,34400 nM
same,TGI,TK-10 renal,37800 nM
same,TGI,HCC-2998 colon,33700 nM
same,TGI,UO-31 renal,27400 nM
same,TGI,OVCAR-5 ovarian,27200 nM
same,TGI,OVCAR-4 ovarian,44800 nM
same,TGI,SNB-75 CNS,79100 nM
same,TGI,K-562 leukemia,79700 nM
same,TGI,IGROV1 ovarian,> 100000 nM
same,TGI,NCI-H23 lung,52300 nM
same,TGI,M14 melanoma,33500 nM
same,TGI,KM12 colon,30800 nM
same,TGI,HOP-92 NSCLC,45200 nM
same,TGI,CCRF-CEM leukemia,> 100000 nM
same,TGI,CAKI-1 renal,> 100000 nM
same,TGI,SNB-19 CNS,30200 nM
same,TGI,NCI/ADR-RES ovarian,78800 nM
same,TGI,SF-268 CNS,74100 nM
same,TGI,RXF 393 renal,25000 nM
same,TGI,HS 578T breast,> 100000 nM
same,TGI,A549 NSCLC,53200 nM
same,TGI,EKVX NSCLC,59000 nM
same,TGI,HCT-15 colon,75700 nM
same,TGI,HL-60(TB) leukemia,30100 nM
same,TGI,ACHN renal,58100 nM
same,TGI,SW-620 colon,33900 nM
same,TGI,SF-539 CNS,30400 nM
same,TGI,SK-MEL-28 melanoma,38800 nM
same,TGI,U251 CNS,31700 nM
same,TGI,HT29 colon,32700 nM
same,TGI,MOLT-4 leukemia,69100 nM
same,TGI,SK-MEL-5 melanoma,35300 nM
same,TGI,OVCAR-3 ovarian,36100 nM
same,TGI,RPMI-8226 leukemia,50200 nM
same,TGI,LOX IMVI melanoma,32800 nM
same,TGI,MCF7 breast,23200 nM
same,TGI,SN12C renal,49700 nM
same,TGI,SR leukemia,48000 nM
same,TGI,SK-OV-3 ovarian,91500 nM
same,TGI,786-0 renal,27300 nM
same,TGI,BT-549 breast,37700 nM
same,TGI,OVCAR-8 ovarian,37100 nM
CC(C)Cc1ccc(C(C)C(=O)NCc2ccc(Cn3c(=O)sn(CCCCl)c3=O)cc2)cc1 (configuration not stated),GI50,NCI-H460 lung,1650 nM
same,TGI,NCI-H460 lung,3340 nM
same,GI50,TK-10 renal,493 nM
same,TGI,TK-10 renal,1850 nM
same,GI50,HCC-2998 colon,1850 nM
same,TGI,HCC-2998 colon,3370 nM
same,GI50,UO-31 renal,672 nM
same,TGI,UO-31 renal,2080 nM
same,GI50,OVCAR-5 ovarian,1750 nM
same,TGI,OVCAR-5 ovarian,3290 nM
same,GI50,OVCAR-4 ovarian,1530 nM
same,TGI,OVCAR-4 ovarian,3020 nM
same,GI50,SNB-75 CNS,445 nM
same,TGI,SNB-75 CNS,2040 nM
same,GI50,K-562 leukemia,412 nM
same,TGI,K-562 leukemia,> 100000 nM
same,GI50,IGROV1 ovarian,744 nM
same,TGI,IGROV1 ovarian,2210 nM
same,GI50,SF-295 CNS,4900 nM
same,TGI,SF-295 CNS,17500 nM
same,GI50,NCI-H23 lung,1590 nM
same,TGI,NCI-H23 lung,3260 nM
same,GI50,M14 melanoma,621 nM
same,TGI,M14 melanoma,2200 nM
same,GI50,UACC-62 melanoma,1420 nM
same,TGI,UACC-62 melanoma,2760 nM
same,GI50,KM12 colon,1760 nM
same,TGI,KM12 colon,3450 nM
same,GI50,HOP-92 NSCLC,814 nM
same,TGI,HOP-92 NSCLC,2260 nM
same,GI50,CCRF-CEM leukemia,361 nM
same,TGI,CCRF-CEM leukemia,> 100000 nM
same,GI50,SK-MEL-2 melanoma,1430 nM
same,TGI,SK-MEL-2 melanoma,3000 nM
same,GI50,CAKI-1 renal,619 nM
same,TGI,CAKI-1 renal,2080 nM
same,GI50,SNB-19 CNS,1710 nM
same,TGI,SNB-19 CNS,3300 nM
same,GI50,NCI/ADR-RES ovarian,2110 nM
same,TGI,NCI/ADR-RES ovarian,8250 nM
same,GI50,NCI-H226 lung,1430 nM
same,TGI,NCI-H226 lung,3130 nM
same,GI50,SF-268 CNS,1600 nM
same,TGI,SF-268 CNS,3020 nM
same,GI50,HOP-62 NSCLC,1280 nM
same,TGI,HOP-62 NSCLC,2730 nM
same,GI50,RXF 393 renal,1170 nM
same,TGI,RXF 393 renal,2410 nM
same,GI50,UACC-257 melanoma,1560 nM
same,TGI,UACC-257 melanoma,2980 nM
same,GI50,HS 578T breast,1820 nM
same,TGI,HS 578T breast,4900 nM
same,GI50,NCI-H522 lung,458 nM
same,TGI,NCI-H522 lung,2010 nM
same,GI50,A549 NSCLC,1790 nM
same,TGI,A549 NSCLC,3720 nM
same,GI50,EKVX NSCLC,1470 nM
same,TGI,EKVX NSCLC,2780 nM
same,GI50,HCT-15 colon,511 nM
same,TGI,HCT-15 colon,2050 nM
same,GI50,HL-60(TB) leukemia,3820 nM
same,TGI,HL-60(TB) leukemia,> 100000 nM
same,GI50,MDA-MB-435,1140 nM
same,TGI,MDA-MB-435,2440 nM
same,GI50,ACHN renal,746 nM
same,TGI,ACHN renal,2020 nM
same,GI50,SW-620 colon,497 nM
same,TGI,SW-620 colon,1900 nM
same,GI50,PC-3 prostate,677 nM
same,TGI,PC-3 prostate,2270 nM
same,GI50,SF-539 CNS,1480 nM
same,TGI,SF-539 CNS,2810 nM
same,GI50,DU-145 prostate,1460 nM
same,TGI,DU-145 prostate,2820 nM
same,GI50,SK-MEL-28 melanoma,1650 nM
same,TGI,SK-MEL-28 melanoma,3020 nM
same,GI50,U251 CNS,1630 nM
same,TGI,U251 CNS,3010 nM
same,GI50,A498 renal,1260 nM
same,TGI,A498 renal,2870 nM
same,GI50,HT29 colon,1600 nM
same,TGI,HT29 colon,2940 nM
same,GI50,MOLT-4 leukemia,962 nM
same,TGI,MOLT-4 leukemia,> 100000 nM
same,GI50,SK-MEL-5 melanoma,1630 nM
same,TGI,SK-MEL-5 melanoma,2990 nM
same,GI50,HCT-116 colon,235 nM
same,TGI,HCT-116 colon,783 nM
same,GI50,OVCAR-3 ovarian,738 nM
same,TGI,OVCAR-3 ovarian,2030 nM
same,GI50,COLO 205 colon,1120 nM
same,TGI,COLO 205 colon,2760 nM
same,GI50,RPMI-8226 leukemia,375 nM
same,TGI,RPMI-8226 leukemia,6180 nM
same,GI50,LOX IMVI melanoma,1180 nM
same,TGI,LOX IMVI melanoma,2520 nM
same,GI50,SN12C renal,1340 nM
same,TGI,SN12C renal,2650 nM
same,GI50,MALME-3M melanoma,1560 nM
same,TGI,MALME-3M melanoma,2970 nM
same,GI50,MDA-MB-231 breast,1370 nM
same,TGI,MDA-MB-231 breast,2720 nM
same,GI50,SK-OV-3 ovarian,6130 nM
same,TGI,SK-OV-3 ovarian,20000 nM
same,GI50,786-0 renal,551 nM
same,TGI,786-0 renal,1980 nM
same,GI50,BT-549 breast,1090 nM
same,TGI,BT-549 breast,2700 nM
same,GI50,OVCAR-8 ovarian,1210 nM
same,TGI,OVCAR-8 ovarian,2870 nM
